# Laboratory results taken from patent EP3597650B1, “ALDOSE REDUCTASE INHIBITORS AND USES THEREOF” (The Trustees of Columbia University in the City of New York, priority 2010, dated 2012).
# Key:
# isolated rat heart = assay: Ex vivo isovolumic isolated rat heart, ischemia reperfusion (I/R) injury; settings: 100 nM in perfusate; 20 min zero-flow ischemia, 60 min reperfusion
# Method: Experiments were performed using an isovolumic isolated rat heart preparation as as described by Hwang YC, Sato S, Tsai JY, Yan S, Bakr S, Zhang H, Oates PJ , Ramasamy R (2002), "Aldose reductase activation is a key component of myocardial response to ischemia," Faseb J. 16, 243-245 and Ramasamy R, Hwang YC, Whang J , Bergmann SR (2001), "Protection of ischemic hearts by high glucose is mediated, in part, by GLUT-4," American Journal of Physiology. 281, H290-297.
# Male Wistar rats (300.350 g, 3 to 4 months old) were anesthetized with a mixture of ketamine (80 mg/kg) and xylazine (10 mg/kg). After deep anesthesia was achieved, hearts were rapidly excised, placed into iced saline, and retrogradely perfused at 37 °C in a non-recirculating mode through the aorta at a rate of 12.5 ml/min. Hearts were perfused with modified Krebs-Henseleit buffer containing (in mM) NaCl 118, KCl 4.7, CaCl2 2.5, MgCl2 1.2, NaHCO3 25, glucose 5, palmitate 0.4, bovine serum albumin 0.4, and 70 mU/L insulin. […] Left ventricular developed pressure (LVDP) and left ventricular end diastolic pressure (LVEDP) were measured using a latex balloon in the left ventricle. LVDP, heart rate, and coronary perfusion pressure were monitored continuously on a ADI recorder. […]
# Briefly, isolated perfused hearts were subjected to ischemia reperfusion (I/R) injury and the measures of cardiac injury and cardiac function monitored. […]
# [1] = Solubility in water, LC-MS absorbance peak area at 254 nm; assay type: physicochemical; settings: for Area (Integration of Absorbance Peaks): water pH 7.1, ambient temperature, 254 nm
# Method: Each sample of Compound A & zopolrestat were placed, separately, in water (MQW ultra nanopure) at ambient temperature and vortexed for 3 minutes. The aliquots were then filtered through a tightly-packed cotton plug (placed in a pipette) to remove any residual solids. The attempted concentrations of the respective solutions of Compound A and zopolrestat made were 0.05 mg/mL, 0.1 mg/mL, 0.5 mg/mL, 1.0 mg/mL, 5.0 mg/mL, and 10.0 mg/mL. The pH of the water used was 7.1 (measured electronically by an Orion perpHect LogR Meter Model # 370).
# The filtered samples were run through a binary gradient (program: 5%-100% MeCN over 30 mins) on a LC-MS (Shimadzu LCMS-2010A Liquid Chromatography Mass Spectrometer, reverse-phase column). A 5 µL volume of each sample solution was injected for each run. Each trace contained a peak (for Compound A, TR approx. 14.070 mins; for zopolrestat, TR approx. 16.666 mins) measured at a wavelength of 254 nm for which the respective parent ion masses were observed.
# By comparing the absorbance areas under the peaks corresponding to Compound A & zopolrestat in each water solution made (Table 1), a solubility curve for each compound was generated (Fig. 1). […] Table 1. Integration of Absorbance Peaks for Various Concentrations of Compounds.
# [2] = target: human recombinant aldose reductase (Homo sapiens, UniProt P15121); assay: biochemical
# Method: The rcductasc activity of Compound A and zopolrestat were spectrophotometrically assayed by following the decrease of NADPH at 25°C for 4 min as described in Sato, S. (1992), "Rat kidney aldose reductase and aldehyde reductase and polyolproduction in rat kidney" Am. J. Physiol. 263, F799.F805, incorporated by reference herein in its entirety. [drawing 59]
# Briefly, the reaction mixture (total volume 1 ml) contained 0.1 mM NADPH, 100 mM substrate (DL-glyceraldehyde or L-xylose) and human recombinant aldose reductase (100 mU) in 0.1 M phosphate buffer, pH 6.2. The head to head experiment was carried out in a microplate assay for AR inhibition using D-Glyceraldehyde and NADPH and the absorbance changes were monitored at 340nm and % inhibition was calculated for ARIs at concentrations ranging from 0.1 nM to 100 µM (Table 2 and Figure 2). Data is presented as mean ± standard deviation and is an average of 5 separate runs. The reaction was started by adding the substrate (glyceraldehyde or xylose) as well as the same reaction mixture in which the substrate replaced by deionized water was used as a control. One enzyme unit (U) was defined as the activity consuming 1 µmole of NADPH per min at 25 °C. Table 2. Aldose Reductase Activity for Zopolrestat and Compound A.
# [3] = Solubility in Krebs-Henseleit buffer; assay type: physicochemical; settings: Krebs-Henseleit buffer with glucose, palmitate, bovine serum albumin, insulin
# [4] = attempted concentration 0.05 mg/mL
# [5] = attempted concentration 0.1 mg/mL
# [6] = attempted concentration 0.5 mg/mL
# [7] = attempted concentration 1 mg/mL
# [8] = attempted concentration 5 mg/mL
# [9] = attempted concentration 10 mg/mL
"solubility in pH 7.1 water relative to Zopolrestat ([1]; ambient temperature, all concentrations)","Area (Integration of Absorbance Peaks) [1, 4]","Area (Integration of Absorbance Peaks) [1, 5]","Area (Integration of Absorbance Peaks) [1, 6]","Area (Integration of Absorbance Peaks) [1, 7]","Area (Integration of Absorbance Peaks) [1, 8]","Area (Integration of Absorbance Peaks) [1, 9]",inhibition at 0.0001 µM [2],inhibition at 0.001 µM [2],inhibition at 0.01 µM [2],inhibition at 0.1 µM [2],inhibition at 1 µM [2],inhibition at 10 µM [2],inhibition at 100 µM [2],more active than zopolrestat in vitro against aldose reductase ([2]; fold relative to zopolrestat),SMILES,CK Release (isolated rat heart),LVDP Recovery (isolated rat heart),solubility in Krebs-Henseleit buffer [3]
significantly greater solubility,1811131,3221003,5814304,10515430,17216187,20397336,69 ± 1.3%,79.6 ± 2.4%,80 ± 1.8%,89.2 ± 0.7%,93.6 ± 2.8%,95.3 ± 1.1%,96.2 ± 3.3%,approximately 100 x,"O=C(O)Cc1nn(Cc2nc3cc(C(F)(F)F)ccc3s2)c(=O)c2nccnc12 [Compound A, 2-(8-oxo-7-((5-(trifluoromethyl)benzo[d]thiazol-2-yl)methyl)-7,8-dihydropyrazino[2,3-d]pyridazin-5-yl)acetic acid]",Compound A treated Rat hearts = 425±63 IU/g wet weight,Compound A Treated Rat Hearts = 76±5 % of pre-ischemic values,soluble without ay precipitation or turbidity
–,1039247,1899466,4304556,6129559,13314544,13362465,31.7 ± 5.1%,39.3 ± 4.3%,52.2 ± 1.9%,76.7 ± 2.7%,86.3 ± 3.6%,90.1 ± 3.4%,93.2 ± 3.8%,–,"O=C(O)Cc1nn(Cc2nc3cc(C(F)(F)F)ccc3s2)c(=O)c2ccccc12 [zopolrestat, reference compound]",–,–,heat was applied to render zopolrestat soluble
